In article PMC9246869, “Allosteric inhibition of PPM1D serine/threonine phosphatase via an altered conformational state” (Nature Communications, 2022):
Several values for one entry are separate records, joined by “and”; a condition that tells them apart may be missing. Equal entries are not always repeated.

Columns and labels:
PPM1DΔflap = target: T1, PPM1DΔflap (Homo sapiens, UniProt O15297, DEL219-231/DEL235-284/E287S/S285N); assay: Surface plasmon resonance (SPR); type: binding
T1 construct: PPM1D1–218-GGSNGS-288–420 (PPM1D∆flap); His(6)-SUMO (N, cleaved yes); made in house; host or cells: E. coli BL21 (DE3)
T1 sequence (O15297 with tags, fused parts or gaps DEL219-231/DEL235-284/S285N/E287S): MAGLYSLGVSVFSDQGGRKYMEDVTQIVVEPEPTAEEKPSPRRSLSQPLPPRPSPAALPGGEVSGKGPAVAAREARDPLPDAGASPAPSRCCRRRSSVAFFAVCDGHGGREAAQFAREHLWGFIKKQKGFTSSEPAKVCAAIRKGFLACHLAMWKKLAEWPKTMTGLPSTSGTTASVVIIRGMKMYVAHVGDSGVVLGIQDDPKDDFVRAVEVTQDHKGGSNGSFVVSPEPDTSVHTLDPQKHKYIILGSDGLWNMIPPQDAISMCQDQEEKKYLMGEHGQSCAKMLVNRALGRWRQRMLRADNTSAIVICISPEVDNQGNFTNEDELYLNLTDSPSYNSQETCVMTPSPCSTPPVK
Method: (§1) SPR was carried out on the Biacore S200 (GE Healthcare) using Series S sensor chip NTA (GE BR-1005-32). The preparation of the chip surface was conducted according to the manufacturer’s indications. The running buffer contained 50 mM Tris (pH 7.5), 50 mM NaCl, 1 mM MgCl2, 0.5 mM TCEP, 0.005% (v/v) P20 surfactant, and 2% DMSO. PPM1D1–420 and PPM1D∆Flap were run under single-cycle mode due to the slow-off-rate kinetics. The two proteins were immobilized on the chip surface in flow cells 2 and 3 with a signal of ~1500–2000 RU at a rate of 5 μL/min while flow cell 1 was left blank as a reference. The running buffer was injected three times followed by the GSK2830371 analyte in solution. Injections were carried out at a flow rate of 50 μL/min with the analyte in a concentration series of 5-point, 3-fold ending at 400 nM top dose. The association and dissociation phases were monitored for 90 s and 600 s, respectively. Collected data were evaluated using the Biacore S200 Evaluation Software under 1:1 binding mode. PPM1D∆Hinge was run under multi-cycle mode due to its fast-on/fast-off kinetics. The protein was immobilized to give a signal of ~ 3000 RU. GSK2830371 analyte in solution was injected at a flow rate of 90 μL/min in a 10-pt, 2-fold concentration series ending at 15 μM top dose. The association and dissociation phases were monitored for 45 s and 150 s, respectively. Since GSK2830371 had issues with solubility/aggregation at high concentrations that caused artifacts in sensorgrams, only steady-state analysis was performed to extract Kd.

PPM1DΔhinge [1] = target: T2, PPM1DΔhinge (Homo sapiens, UniProt O15297, DEL155-163/G166S/M164G/T165G); assay: Surface plasmon resonance (SPR); type: binding
T2 construct: PPM1D1–154-GGS-167–420 (PPM1D∆hinge); His(6)-SUMO (N, cleaved yes); made in house; host or cells: E. coli BL21 (DE3)
T2 sequence (O15297 with tags, fused parts or gaps DEL155-163/M164G/T165G/G166S): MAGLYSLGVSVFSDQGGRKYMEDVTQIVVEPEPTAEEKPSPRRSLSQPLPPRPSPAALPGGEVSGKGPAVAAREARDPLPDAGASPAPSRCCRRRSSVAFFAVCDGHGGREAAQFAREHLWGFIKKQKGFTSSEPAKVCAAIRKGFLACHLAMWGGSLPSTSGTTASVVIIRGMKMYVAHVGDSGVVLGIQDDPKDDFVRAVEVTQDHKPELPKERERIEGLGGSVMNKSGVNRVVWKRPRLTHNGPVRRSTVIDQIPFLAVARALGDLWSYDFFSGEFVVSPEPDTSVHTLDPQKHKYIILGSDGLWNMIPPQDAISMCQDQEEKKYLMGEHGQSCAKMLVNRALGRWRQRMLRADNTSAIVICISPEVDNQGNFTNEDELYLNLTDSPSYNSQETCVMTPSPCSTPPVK
Method: as §1

PPM1DΔhinge [2] = target: T2, PPM1DΔhinge; assay: FDP (fluorescein diphosphate) enzymatic assay; type: biochemical; details: for FDP Assay, signal relative to 0 nM GSK (=100): PPM1DΔHinge, individual runs, listed as GSK
Method: The FDP assay was adapted from reported protocol with minor modifications. Fluorescein diphosphate tetra-ammonium salt (CAS 217305-49-2) was purchased from AAT Bioquest (Cat No.11600). The assay was carried out on a 384-well plate (Corning Cat No.3575) with assay buffer containing 50 mM Tris (pH 7.5), 50 mM NaCl, 30 mM MgCl2, 0.01% tween 20, and 2% DMSO. Reactions were initiated with the addition of FDP to a solution containing wild-type PPM1D or one of its variants, to a final concentration of 5 nM for PPM1D and 100 μM for FDP (or as indicated in Kcat/KM measurements). A fluorescent signal was detected on a Spectramax microplate reader (485/530 nm) for the next 15 min at room temperature with an interval for data collection of 45 s. For the IC50 measurement, the compound was pre-incubated with PPM1D for 1 h before addition of the substrate.

With Cc1ncc(Cl)cc1NCc1ccc(C(=O)N[C@@H](CC2CCCC2)C(=O)NC2CC2)s1 [GSK2830371] the Kd (PPM1DΔflap; PPM1DΔflap, Fig. 6A) was 1 nM, the koff (PPM1DΔflap; read-out: koff (SPR)) was 0.0045 s⁻¹ and the kon (PPM1DΔflap; read-out: kon (SPR)) was 5e+06 M⁻¹ s⁻¹. For the same molecule, the “decrease in binding affinity by SPR upon hinge deletion” value (PPM1DΔhinge [1]; PPM1DΔhinge versus PPM1D1–420) was ~ 1000 fold, the Kd (PPM1DΔhinge [1]; PPM1DΔhinge, multi-cycle, steady-state analysis) was 1000 nM and the “increase of IC50 in FDP assay upon hinge deletion” value (PPM1DΔhinge [2]; PPM1DΔhinge versus PPM1D1–420) was 100 fold. The “FDP Assay, signal relative to 0 nM GSK (=100)” value (PPM1DΔhinge [2]; [GSK] 9.76562 nM) was 99.774 and 81.7509, the “FDP Assay, signal relative to 0 nM GSK (=100)” value (PPM1DΔhinge [2]; [GSK] 19.5312 nM) was 74.1093 and 82.0598 and the “FDP Assay, signal relative to 0 nM GSK (=100)” value (PPM1DΔhinge [2]; [GSK] 39.0625 nM) was 92.7672 and 94.3849. For the same molecule, the “FDP Assay, signal relative to 0 nM GSK (=100)” value (PPM1DΔhinge [2]; [GSK] 78.125 nM) was 88.4223 and 95.7187, the “FDP Assay, signal relative to 0 nM GSK (=100)” value (PPM1DΔhinge [2]; [GSK] 156.25 nM) was 86.3292 and 93.2128 and the “FDP Assay, signal relative to 0 nM GSK (=100)” value (PPM1DΔhinge [2]; [GSK] 312.5 nM) was 78.7193 and 77.5806. For the same molecule, the “FDP Assay, signal relative to 0 nM GSK (=100)” value (PPM1DΔhinge [2]; [GSK] 625 nM) was 74.7657 and 65.5885, the “FDP Assay, signal relative to 0 nM GSK (=100)” value (PPM1DΔhinge [2]; [GSK] 1250 nM) was 60.0936 and 55.4697 and the “FDP Assay, signal relative to 0 nM GSK (=100)” value (PPM1DΔhinge [2]; [GSK] 2500 nM) was 47.8958 and 40.0931. For the same molecule, the “FDP Assay, signal relative to 0 nM GSK (=100)” value (PPM1DΔhinge [2]; [GSK] 5000 nM) was 6.587 and 19.2353 and the “FDP Assay, signal relative to 0 nM GSK (=100)” value (PPM1DΔhinge [2]; [GSK] 10000 nM) was 0.167 and 0.2855.
